The values that follow come from ChEMBL document CHEMBL2203248, “Identification of novel series of pyrazole and indole-urea based DFG-out PYK2 inhibitors” (Bioorg Med Chem Lett, 2012).

Data set [1] is described as follows: Clearance in human liver microsomes at 1 uM after 40 mins by HPLC-MS analysis. The class given is ADME, Microsome. As to conditions: read-out: CLH. A general note: Liver microsomes are a subcellular fraction often used to study metabolism.
Data set [2] is described as follows: Lipophilicity, log D of the compound at pH 7.4. As to conditions: buffer. The class given is physicochemical.
The nature of data set [3]: Oral bioavailability in Wistar Han rat at 30 mg/kg. The class given is ADME, organism-based. As to conditions: in vivo.
Data set [4] deals with Rattus norvegicus. Kind of data set: fCmax in Wistar Han rat at 30 mg/kg, po. The format is ADME, organism-based. Set-up: dose 30 mg/kg, route oral. As to conditions: in vivo.
Data set [5] is described as follows: Cmax in Wistar Han rat at 30 mg/kg, po. Details: dose 30 mg/kg, route oral. The format is ADME, organism-based. The settings on record: in vivo.
Data set [6] is described as follows: Volume of distribution at steady state in Wistar Han rat at 1 mg/kg, iv. As to conditions: in vivo, read-out: Vdss. Set-up: dose 1 mg/kg, route intravenous. The format is ADME, organism-based.
Data set [7] is described as follows: Plasma clearance in Wistar Han rat at 1 mg/kg, iv. The class given is ADME, organism-based. Set-up: dose 1 mg/kg, route intravenous.
Data set [8] can be described thus: Terminal elimination half life in Wistar Han rat at 1 mg/kg, iv. The class given is ADME, organism-based. Details: dose 1 mg/kg, route intravenous. The settings on record: in vivo, read-out: beta t1/2 (converted).
In data set [9] the test system is Rattus norvegicus. As to the kind of experiment: fCmax in Wistar Han rat at 100 mg/kg, po. The format is ADME, organism-based. Details: dose 100 mg/kg, route oral. As to conditions: in vivo.
The nature of data set [10]: Cmax in Wistar Han rat at 100 mg/kg, po. The format is ADME, organism-based. Set-up: dose 100 mg/kg, route oral. The settings on record: in vivo.
Data set [11] is described as follows: Terminal elimination half life in Wistar Han rat at 100 mg/kg, po. Details: dose 100 mg/kg, route oral. The format is ADME, organism-based. As to conditions: in vivo, read-out: beta t1/2 (converted).

For the molecule `Cc1ccc(-n2nc(C(C)(C)C)cc2NC(=O)Nc2cc(COc3cccnc3)n[nH]2)cc1`, the CLint scaled at 1 µM in data set [1] was found to be 109 mL/min/kg.

A word on the logD: it is the decadic logarithm of the distribution of all forms, ionised or not, between an organic phase and buffer at a given pH. Low readings indicate lower lipophilicity, high ones higher lipophilicity. `CNC(=O)c1cc2cccc(NC(=O)Nc3cc(C(C)(C)C)nn3-c3ccc(C)cc3)c2[nH]1`: the CLint scaled at 1 µM in data set [1] is 28 mL/min/kg. Moreover, in data set [2], the pH-dependent lipophilicity (logD) is 4.9.

`Cc1ccc(-n2nc(C(C)(C)C)cc2NC(=O)Nc2cccc3cc(C(=O)NC(C)C)[nH]c23)cc1`: the CLint scaled at 1 µM in data set [1] came to 93 mL/min/kg. Besides, in data set [2], the pH-dependent lipophilicity (logD) was found to be 5.3.

Take `Cc1ccc(-n2nc(C(C)(C)C)cc2NC(=O)Nc2cccc3cc(C(=O)N4CCC5(CCNC5)C4)[nH]c23)cc1` (stereo not given): the CLint scaled at 1 µM in [1] worked out at 53 mL/min/kg.

As a reminder, the bioavailability is dose-corrected exposure relative to a reference, in per cent. Low values mean little systemic uptake, high ones much systemic uptake. By Cmax is commonly meant the peak of the concentration-time curve. Usually clearance stands for the volume of plasma or blood freed of the substance per unit of time. High values mean a high capacity for elimination, low ones a low capacity for elimination. For `Cc1ccc(-n2nc(C(C)(C)C)cc2NC(=O)Nc2cccc3cc(C(=O)N(C)CCc4ccccn4)[nH]c23)cc1`, the bioavailability in data set [3] was 69%. The molecule further registered a fCmax in data set [4] of 25 nM. The same molecule gave a Cmax in data set [5] of 38.3 µM. The Vd in [6] stood at 0.4 L/kg. The clearance in [7] is 3.2 mL/min/kg. For the same molecule, the CLint scaled at 1 µM in data set [1] was determined as 53 mL/min/kg. Further, the half-life in [8] is 2.2 h.

For `CCOCCCNC(=O)c1cc2cccc(NC(=O)Nc3cc(C(C)(C)C)nn3-c3ccc(C)cc3)c2[nH]1`, in data set [3], the bioavailability was found to be 1.6%. The same molecule came in with a fCmax in [4] of 42 nM. In addition, the peak level in data set [5] (Cmax) was 0.621 µM. Besides, the Vd in [6] turned out to be 0.7 L/kg. In data set [7], this molecule returned a clearance of 4.8 mL/min/kg. Besides, the CLint scaled at 1 µM in data set [1] came to 31 mL/min/kg. Moreover, the half-life in [8] is 4.1 h.

Take `COc1ccc(-c2cc(NC(=O)Nc3cc(C(C)(C)C)nn3-c3ccc(C)cc3)n[nH]2)c(C)c1`: the CLint scaled at 1 µM in data set [1] turned out to be 129 mL/min/kg.

Regarding `COc1ccc(-c2cc(NC(=O)Nc3cc(C(C)(C)C)nn3-c3ccc(C)cc3)n[nH]2)cn1`, the CLint scaled at 1 µM in data set [1] is 48 mL/min/kg. The same molecule showed a log distribution coefficient (logD) in data set [2] of 4.9.

`Cc1ccc(-n2nc(C(C)(C)C)cc2NC(=O)Nc2cc(-c3ccc(=O)[nH]c3)n[nH]2)cc1`: the CLint scaled at 1 µM in data set [1] came out at 11.9 mL/min/kg. The logD in data set [2] came out at 3.7.

For the molecule `Cc1ccc(-n2nc(C(C)(C)C)cc2NC(=O)Nc2cc(-c3ccc(O)nn3)[nH]n2)cc1`, in data set [1], the CLint scaled at 1 µM was 16 mL/min/kg.

For `Cc1ccc(-n2nc(C(C)(C)C)cc2NC(=O)Nc2cc(-c3ccc(=O)n(C)c3)n[nH]2)cc1`, the CLint scaled at 1 µM in data set [1] amounted to 20 mL/min/kg. The molecule further came in with a logD in data set [2] of 3.8.

As to `Cc1ccc(-n2nc(C(C)(C)C)cc2NC(=O)Nc2cc(-c3ccc4c(c3)OCCO4)[nH]n2)cc1`, the CLint scaled at 1 µM in data set [1] amounted to 92 mL/min/kg.

`Cc1ccc(-n2nc(C(C)(C)C)cc2NC(=O)Nc2cc(-c3ccc4nccn4c3)[nH]n2)cc1`: in data set [1], the CLint scaled at 1 µM was determined as 44 mL/min/kg. Besides, in data set [2], the logD came to 4.5.

`Cc1ccc(-n2nc(C(C)(C)C)cc2NC(=O)Nc2cc(-c3ccc4ncccc4c3)n[nH]2)cc1` registered a bioavailability in data set [3] of 47%. The fCmax in data set [4] was determined as 184 nM. Further, in [5], the Cmax stood at 61.3 µM. In addition, the Vd in [6] amounted to 0.15 L/kg. Further, in data set [7], the clearance was determined as 2 mL/min/kg. Further, the CLint scaled at 1 µM in data set [1] is 55 mL/min/kg. This molecule came in with a logD in [2] of 5.2. Also, the half-life in [8] is 2 h.

In the case of `Cc1ccc(-n2nc(C(C)(C)C)cc2NC(=O)Nc2cc(-c3ccc4nccnc4c3)[nH]n2)cc1`, the fCmax in data set [9] was determined as 1.1 nM. Besides, the maximum concentration (Cmax) in data set [10] was found to be 0.068 µM. Moreover, the half-life in [11] was 7.3 h. Moreover, the CLint scaled at 1 µM in data set [1] came out at 149 mL/min/kg. The logD in [2] was 4.7.

In the case of `Cc1ccc(-n2nc(C(C)(C)C)cc2NC(=O)Nc2cccc3cc(C(=O)N4CCCC4)[nH]c23)cc1`, in data set [1], the CLint scaled at 1 µM came out at 77 mL/min/kg.
